Laboratory results published in patent publication US8673913B2, “SHP-2 phosphatase inhibitor” (Case Western Reserve University, priority 2009, dated 2014).

Assays:
[1] = molecular target: T1, SHP-2 PTP domain GST fusion protein (Homo sapiens, UniProt Q06124); experiment: in vitro protein tyrosine phosphatase assay, SHP-2 (Malachite Green); assay type: biochemical; parameters: SHP-2 PTP domain GST fusion protein purified in house was used as the enzyme; made in house; conditions: compound at 100 μM; read-out: inhibition of SHP-2 enzymatic activity
T1 sequence (Q06124 247-517 limits assumed): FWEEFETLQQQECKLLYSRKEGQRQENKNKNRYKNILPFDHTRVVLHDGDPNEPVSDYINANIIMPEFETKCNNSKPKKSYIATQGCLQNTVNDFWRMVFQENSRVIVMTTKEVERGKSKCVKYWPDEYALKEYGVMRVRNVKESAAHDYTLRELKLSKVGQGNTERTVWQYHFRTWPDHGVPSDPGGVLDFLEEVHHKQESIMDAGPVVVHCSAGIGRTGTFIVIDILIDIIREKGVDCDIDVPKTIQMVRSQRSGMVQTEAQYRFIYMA
Excerpt: Candidate compounds were screened using the in vitro protein tyrosine phosphatase (PTP) assay kit (Sigma, St. Lois, Mo.). SHP-2 PTP domain GST fusion protein purified in house was used as the enzyme and a phospho-peptide corresponding to the surrounding sequence of pTyr^1146 in the insulin receptor (Thr-Arg-Asp-Ile-Tyr[PO3H2]-Glu-Thr-Asp-Tyr-Tyr) were used as the substrate. The assay determines free phosphate generated by dephosphorylation of the PTP substrate using the Malachite Green reagent. Briefly, 0.5 μg of GST-SHP-2 PTP was incubated in 40 μL assay buffer (25 mM Tris-HCl, PH7.4, 50 mM NaCl, 5 mM DTT, and 2.5 mM EDTA) with test compounds at various concentrations or DMSO at room temperature for 30 min. The PTP substrate was then added to a final concentration of 0.2 mM. The system was incubated at 30° C. for 30 min. Finally, 50 μl of Malachite Green solution was added and OD620 was measured after 5 min. In the phosphatase assays for SHP-1, CD45, TC-PTP, PTP-MEG2 (PTPN9), and LAR (PTPRF), procedures were similar, with the exception that GST-SHP-1, GST-CD45 cytoplasmic domain, GST-TC-PTP, GST-PTP-MEG2 PTP domain, and GST-LAR PTP domain purchased from Biomol International, L.P. (Plymouth Meeting, Pa.) were used instead as the enzymes.
Candidate compounds identified by CADD were screened by the in vitro tyrosine phosphatase assay as described in the Experimental Section. The GST-SHP-2 PTP domain fusion protein was incubated with the compounds at room temperature for 30 min before the phospho-peptide substrate was added to the assay systems, allowing compounds to bind to target sites in SHP-2. Each test compound was dissolved in DMSO. Initial concentration of the test compounds was 100 μM. In the experimental assay, DMSO was included as the negative control and sodium orthovanadate (100 μM), a general non-specific tyrosine phosphatase inhibitor, was used as the positive control. From the 165 commercially available compounds tested, we identified 9 compounds that inhibit SHP-2 catalytic activity with various efficiencies (FIG. 3A). […] The inhibitory effects of the compounds were dose-dependent.

[2] = molecular target: T1, SHP-2 PTP domain GST fusion protein; experiment: fluorescence titration (quenching of SHP-2 fluorescence); assay type: binding; parameters: Purified SHP-2 PTP domain GST-fusion protein was diluted into 20 mM Tris-HCl; made in house; conditions: SHP-2 protein 3 μM, excitation 295 nm
Experimental: For all experiments, Purified SHP-2 PTP domain GST-fusion protein was diluted into 20 mM Tris-HCl, pH 7.5. Fluorescence spectra were recorded with a Luminescence Spectrometer LS50 (Perkin-Elmer, Boston, Mass.). Titrations were performed by increasing the test compound concentration while maintaining the SHP-2 protein concentration at 3 μM. Contributions from background fluorescence of the inhibitors were accounted for by subtracting the fluorescence of the inhibitors alone from the of the protein-inhibitor solution. The excitation wavelength was 295 nm and fluorescence was monitored from 360 to 500 nm. All reported fluorescence intensities are relative values and are not corrected for wavelength variations in detector response.
To validate that the active compounds identified were binding directly to the SHP-2 protein, we determined whether the active compounds directly interacted with the SHP-2 PTP domain using fluorescence quenching and taking advantage of the four tryptophans in the PTP domain, with Trp248 located 15 Å from the putative pY+5 pocket and Trp423 located 8 Å from the phosphatase active site. […] Therefore, their binding to SHP-2 protein could not be determined using this measurement. Thus, the fluorescence quenching experiments indicate that at least four active compounds identified do directly bind to SHP-2, thereby leading to their biological activities.

inhibition at 100 µM [1] [%]	quenching of SHP-2 fluorescence [2]	SMILES
45	–	O=C(CCCn1c(=O)c2cccn2c2cccnc21)NCc1ccccc1F [#212]
40	–	CNC(=S)NNC(=O)c1csc(-c2cccs2)n1 [#226]
–	did not show significant quenching	CNC(=S)NNC(=O)CSCCS(=O)(=O)c1ccccc1 [#234]
–	did not show significant quenching	CCc1ccc(OCC(=O)Nc2ccc(S(N)(=O)=O)cc2)cc1 [#270]
–	strong quenching	CSc1ccc(C2C(C#N)=C(N)Oc3[nH]nc(-c4ccccc4Cl)c32)cc1 (centres unmarked) [#284]
